Article PMC10459042, “Synthesis of 1,2,3-Triazole-Containing Methoxylated Cinnamides and Their Antileishmanial Activity against the Leishmania braziliensis Species” (Pharmaceuticals, 2023)
In brackets after ≈: the same amount, converted by molar mass. Values belong to the molecule of their own block, whether it stands above or below them.

Legend:
[1] = test system: Leishmania braziliensis promastigotes; assay: Depolarization of mitochondrial membrane potential (ΔΨm), JC-1; assay type: cell-based; details: FCCP 1.3 µg/mL (5.0 µmol/L) for 20 min; non-treated parasites 7.2
Description: Leishmania braziliensis promastigotes (1 × 10^7 cells/mL) were treated with compound 28 (at a concentration corresponding to one IC50 value) for 48 h at 24 °C. The parasites (3 × 10^6 cells/mL) were then labeled with JC-1 (5 µg/mL, Sigma-Aldrich, St. Louis, MO, USA) for 30 min at 37 °C. After washing twice with PBS to remove the non-internalized dye, the samples were added to a black 96-well plate, and the ΔΨm was analyzed in a spectrofluorometer (FLx800, BioTek Instruments, Winooski, VT, USA) with an excitation filter of 485 nm and emission wavelength of 528 nm and […] to measure the green and red fluorescence, respectively. The ΔΨm was determined using the ratio between the red/green fluorescence intensity. Parasites that were exposed to 1.3 µg/mL (5.0 µmol/L) of FCCP (Sigma-Aldrich, St. Louis, MO, USA) for 20 min were used as a control. […]
Figure 4 ΔΨm and ROS production in Leishmania after exposure to Compound 28. […] (A) Depolarization of ΔΨm was evaluated using the JC-1 fluorescent probe. Samples were analyzed fluorometrically, and the results are expressed as the ratio of red/green fluorescence. […] (B) ROS production was evaluated using the H2DCFDA probe. The fluorescence intensity was measured by fluorimetry, and the results are expressed as the fold increase in the ROS level compared with the non-treated control. […]

[2] = test system: Leishmania braziliensis stationary promastigotes; assay: In vitro antileishmanial activity against promastigotes (MTT); assay type: cell-based
Description: The study was approved by the Committee for the Ethical Handling of Research Animals from the Federal University of Minas Gerais (protocol number 085/2017). Leishmania braziliensis (MHOM/BR/1975/M2904) promastigotes were grown at 24 °C in Schneider’s medium (Sigma-Aldrich, USA) supplemented with 20% heat-inactivated fetal bovine serum (FBS, Sigma-Aldrich, USA) and 20 mmol/L L-glutamine at pH 7.4 [65].
(§1) The in vitro antileishmanial activity was evaluated by incubating the promastigotes or axenic amastigotes (1 × 10^6 cells/well) with the 24 synthetic derivatives (Compounds 5–28; 0 to 600 µg/mL) in 96-well culture plates (Nunc, Nunclon, Roskilde, Denmark) for 48 h at 24 °C. Due to the difficulty in obtaining a high concentration of murine macrophages, the cytotoxicity experiment was evaluated by incubating such cells (5 × 10^5 per mL) with Compound 28 (0 to 600 µg/mL), which presented the best antileishmanial activity, for 48 h at 37 °C in a 5% CO2 environment. AmpB (0 to 10 µg/mL; Sigma-Aldrich, St. Louis, MO, USA) was used as a positive control in both experiments. The cell viability was assessed using the 3-(4.5-dimethylthiazol-2-yl)-2.5-diphenyl tetrazolium bromide (MTT, Sigma-Aldrich, St. Louis, MO, USA) method. The optical density (OD) values were read using a microplate spectrophotometer (Molecular Devices, Spectra Max Plus, San Jose, CA, USA) at 570 nm. Results were entered into Microsoft Excel (version 10.0) spreadsheets, and the 50% Leishmania and macrophage inhibitory concentrations (IC50 and CC50, respectively) were calculated by applying a sigmoidal regression of the dose–response curve. The SI was calculated by dividing the CC50 with the respective IC50 values.

[3] = test system: Leishmania braziliensis axenic amastigotes; assay: In vitro antileishmanial activity against axenic amastigotes (MTT); assay type: cell-based
Description: To obtain the axenic amastigotes, 1 × 10^9 stationary promastigotes were washed three times in sterile phosphate-buffered saline (PBS) and incubated in 5 mL FBS for 48 h at 37 °C. Parasites were washed with cold PBS, and their morphology was evaluated with an optical microscope after Giemsa staining as previously described.
as §1

[4] = Cytotoxicity in mammalian cells (MTT); assay type: cell-based; details: mouse; murine macrophages, 48 h at 37 °C in 5% CO2, MTT, mean ± standard deviation
Description: as §1

[5] = test system: L. braziliensis-infected macrophages; assay: Treatment of infected macrophages; assay type: cell-based, Leishmania braziliensis; details: 48 h at 37 °C; for Number of Amastigotes per Cell after treatment: untreated 10.3; for Percentage of Infected Macrophages after Treatment: untreated 92.8
Description: Murine macrophages (5 × 10^5 cells) were plated on round glass coverslips in 24-well plates in RPMI 1640 medium with added 20% FBS and 20 mmol/L L-glutamine at pH 7.4 and incubated for 24 h at 37 °C in 5% CO2. Promastigotes were added to the wells (at a ratio of 10 parasites per macrophage), and cultures were incubated for 48 h at 37 °C in a 5% CO2 environment. Free parasites were removed by extensive washing with RPMI 1640 medium, and the infected macrophages were treated with Compound 28 or AmpB (0, 1.0, 2.5 and 5.0 µg/mL in both cases) for 48 h at 37 °C in 5% CO2.
(§2) To evaluate the inhibition of infection, promastigotes (5 × 10^6 cells) were first incubated with Compound 28 or AmpB (0, 1.0, 2.5 and 5.0 µg/mL in both cases) for 4 h at 24 °C; these were then used to infect murine macrophages (at a ratio of 10 parasites per macrophage) and incubated for 24 h at 37 °C in 5% CO2. Then, cells were fixed with 4% paraformaldehyde, washed, and stained with Giemsa. The percentage of infected macrophages and the number of recovered amastigotes were determined by counting 200 cells, in triplicate, using an optical microscope.

[6] = test system: L. braziliensis promastigotes infecting murine macrophages; assay: Inhibition of infection (parasites pre-incubated with compound, then used to infect macrophages); assay type: cell-based, Leishmania braziliensis; details: for Number of Amastigotes per Cell using pre-incubated parasites: untreated 8.9; for Percentage of Infected Macrophages Using Pre-Incubated Parasites: untreated 90.5
Description: as §2

[7] = test system: L. braziliensis-infected macrophages; assay: ROS levels in Leishmania-infected macrophages (H2DCFDA); assay type: cell-based, Leishmania braziliensis; details: H2O2 0.02 µg/mL (0.5 µmol/L)
Description: Macrophages (1 × 10^6 cells/mL) were incubated in 96-well culture plates (Nunc, Nunclon, Roskilde, Denmark) and infected with L. braziliensis promastigotes (at a ratio of 10 parasites per cell). The infected macrophages were either left untreated or treated with Compound 28 (at a concentration of 5.0 µg/mL) for 48 h at 37 °C in 5% CO2. The cells were washed with PBS and incubated with 20 μmol/L H2DCFDA (Molecular Probes, Eugene, Oregon, USA) for 30 min in the dark. The fluorescence intensity was measured using a spectrofluorometer (FLx800; BioTek Instruments, Winooski, VT, USA) at 485 nm excitation and 528 nm emission. As a positive control, the infected macrophages were incubated with H2O2 at a concentration of 0.02 µg/mL (0.5 µmol/L). Parasites that were untreated with Compound 28 and not labeled with the fluorescent probe were used as the sample blank.
Figure 3 Production of ROS in L. braziliensis-infected macrophages treated with Compound 28. Leishmania braziliensis-infected macrophages (1 × 10^5 cells) were incubated with Compound 28 (5.0 µg/mL) for 48 h at 37 °C in a 5% CO2 environment. Subsequently, 2′,7′-dichlorodihydrofluorescein diacetate (H2DCFDA, 9.7 μg/mL) was added for 30 min under dark conditions. The fluorescence levels were measured in a spectrofluorometer at 485/528 nm. H2O2 (0.5 µmol/L) was used as a positive control. […]

[8] = test system: L. braziliensis promastigotes; assay: ROS production in promastigotes (H2DCFDA); assay type: cell-based, Leishmania braziliensis; details: H2O2-incubated promastigotes
Description: After treatment with Compound 28 (at a concentration corresponding to one IC50 value) for 48 h at 24 °C, L. braziliensis promastigotes were washed with PBS, and the parasite concentration was adjusted to 3 × 10^6 cells per well. H2DCFDA (Sigma-Aldrich, St. Louis, MO, USA) was then added and incubated for 30 min in the dark, and samples were read in a fluorometric microplate reader (FLx800, BioTek Instruments, Winooski, VT, USA) with excitation and emission wavelengths of 485 and 528 nm, respectively. Parasites that were untreated or treated with Compound 28 and not labeled with the fluorescent probe were used as the blank.
Figure 4 ΔΨm and ROS production in Leishmania after exposure to Compound 28. Leishmania braziliensis promastigotes were not exposed (negative control) or exposed to Compound 28 (at a concentration corresponding to the IC50 value) for 48 h. (A) Depolarization of ΔΨm was evaluated using the JC-1 fluorescent probe. Samples were analyzed fluorometrically, and the results are expressed as the ratio of red/green fluorescence. FCCP ([…]) was used as a positive control. (B) ROS production was evaluated using the H2DCFDA probe. The fluorescence intensity was measured by fluorimetry, and the results are expressed as the fold increase in the ROS level compared with the non-treated control. H2O2-treated parasites were used as a positive control. […]

[9] = parasites pre-incubated with 2.5 µg/mL at 24 °C
[10] = parasites pre-incubated with 5.0 µg/mL at 24 °C

SMILES: N#CC(C#N)=NNc1ccc(OC(F)(F)F)cc1 [FCCP, carbonyl cyanide-p-trifluoromethoxyphenylhydrazone, reference compound]
- ΔΨm, JC-1 ratio of red/green fluorescence (positive control) [1]: 3.4

- IC50 ([2]; Leishmania braziliensis, 48 h at 24 °C, MTT, mean ± standard deviation): 0.974 ± 0.2 µg/mL (≈ 1.05 µM)
- IC50 ([3]; Leishmania braziliensis, 48 h, 48 h at 24 °C, MTT, mean ± standard deviation): 1.3 ± 0.4 µg/mL (≈ 1.41 µM)
SMILES: C[C@@H]1[C@H](O)[C@@H](C)/C=C/C=C/C=C/C=C/C=C/C=C/C=C/[C@H](O[C@@H]2O[C@H](C)[C@@H](O)[C@H](N)[C@@H]2O)C[C@@H]2O[C@](O)(C[C@@H](O)C[C@@H](O)[C@H](O)CC[C@@H](O)C[C@@H](O)CC(=O)O[C@H]1C)C[C@H](O)[C@H]2C(=O)O [Amphotericin B, amphotericin B, reference compound]
- Selectivity index (SI), ratio CC50/IC50, promastigotes ([2]; CC50 murine macrophages / IC50 promastigotes): 9.1
- Selectivity index (SI), ratio CC50/IC50, axenic amastigotes ([3]; CC50 murine macrophages / IC50 axenic amastigotes): 6.8
- CC50 at 48 h [4]: 8.9 ± 0.8 µg/mL (≈ 9.63 µM)
- Number of Amastigotes per Cell after treatment ([5]; 1.0 µg/mL): 4.2
- Percentage of Infected Macrophages after Treatment ([5]; 1.0 µg/mL): 39.1%
- Number of Amastigotes per Cell after treatment ([5]; 2.5 µg/mL): 3.5
- Percentage of Infected Macrophages after Treatment ([5]; 2.5 µg/mL): 27.6%
- Number of Amastigotes per Cell after treatment ([5]; 5.0 µg/mL): 1.8
- Percentage of Infected Macrophages after Treatment ([5]; 5.0 µg/mL): 19.8%
- Number of Amastigotes per Cell using pre-incubated parasites [6, 9]: 6.5
- Percentage of Infected Macrophages Using Pre-Incubated Parasites [6, 9]: 67.6%
- Number of Amastigotes per Cell using pre-incubated parasites [6, 10]: 5.3
- Percentage of Infected Macrophages Using Pre-Incubated Parasites [6, 10]: 51.4%

SMILES: OO [Compound H2O2, H2O2, reference compound]
- Increase in ROS production in infected cells (positive control) [7]: 41.4%
- Fold increase in ROS levels compared with untreated parasites (positive control) [8]: 1.6 fold
